Results published in PubChem BioAssay AID248 (DTP/NCI, 2004).
Values joined by “and” are separate entries in the source; they are usually repeats but may differ in a detail not shown here. Equal entries are not always repeated. Toxic doses and inconclusive results are not listed.

Tested on: L1210 leukemia ip in BDF1 mice, survival T/C
Assay: NCI In Vivo Anticancer Drug Screen. Data for tumor model L1210 Leukemia (intraperitoneal) in B6D2F1 (BDF1) mice
Conditions: higher = longer survival
In short: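 Mice bearing the transplanted tumor received compound or vehicle. Survival of the treated group was divided by that of the vehicle-treated control group to give the ratio.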

SMILES: c1cc2n(n1)CCN2
- T/C (endpoint: mean survival time, dose: 26.6 mg/kg/injection, schedule: Q01DX Z (ip), vehicle: methylcellulose (MC)): 110 % of control
- T/C (endpoint: mean survival time, dose: 40.0 mg/kg/injection, schedule: Q01DX Z (ip), vehicle: methylcellulose (MC)): 108 % of control
- T/C (endpoint: mean survival time, dose: 50.0 mg/kg/injection, schedule: Q01DX009 (ip), vehicle: water): 109 % of control
- T/C (endpoint: mean survival time, dose: 60.0 mg/kg/injection, schedule: Q01DX Z (ip), vehicle: methylcellulose (MC)): 107 % of control and 112 % of control
- T/C (endpoint: mean survival time, dose: 90.0 mg/kg/injection, schedule: Q01DX Z (ip), vehicle: methylcellulose (MC)): 104 % of control and 112 % of control
- T/C (endpoint: mean survival time, dose: 100.0 mg/kg/injection, schedule: Q01DX001 (ip), vehicle: saline): 103 % of control
- T/C (endpoint: mean survival time, dose: 100.0 mg/kg/injection, schedule: Q01DX001 (sc), vehicle: saline): 112 % of control
- T/C (endpoint: mean survival time, dose: 100.0 mg/kg/injection, schedule: Q01DX009 (ip), vehicle: saline): 112 % of control
- T/C (endpoint: mean survival time, dose: 100.0 mg/kg/injection, schedule: Q01DX009 (ip), vehicle: water): 107 % of control
- T/C (endpoint: mean survival time, dose: 100.0 mg/kg/injection, schedule: Q04DX003 (ip), vehicle: saline): 98 % of control and 100 % of control and 104 % of control
- T/C (endpoint: mean survival time, dose: 100.0 mg/kg/injection, schedule: Q04DX003 (ip), vehicle: water): 114 % of control
- T/C (endpoint: mean survival time, dose: 100.0 mg/kg/injection, schedule: Q04DX003 (sc), vehicle: saline): 102 % of control and 105 % of control
- T/C (endpoint: mean survival time, dose: 100.0 mg/kg/injection, schedule: Q08DX002 (ip), vehicle: saline): 105 % of control
- T/C (endpoint: mean survival time, dose: 132.0 mg/kg/injection, schedule: Q01DX009 (ip), vehicle: saline): 115 % of control
- T/C (endpoint: mean survival time, dose: 135.0 mg/kg/injection, schedule: Q01DX Z (ip), vehicle: methylcellulose (MC)): 100 % of control
- T/C (endpoint: mean survival time, dose: 200.0 mg/kg/injection, schedule: Q01DX001 (ip), vehicle: saline): 101 % of control
- T/C (endpoint: mean survival time, dose: 200.0 mg/kg/injection, schedule: Q01DX001 (oral), vehicle: saline): 105 % of control
- T/C (endpoint: mean survival time, dose: 200.0 mg/kg/injection, schedule: Q01DX001 (sc), vehicle: saline): 112 % of control
- T/C (endpoint: mean survival time, dose: 200.0 mg/kg/injection, schedule: Q01DX009 (ip), vehicle: water): 121 % of control
- T/C (endpoint: mean survival time, dose: 200.0 mg/kg/injection, schedule: Q04DX003 (ip), vehicle: saline): 98 % of control and 107 % of control and 124 % of control
- T/C (endpoint: mean survival time, dose: 200.0 mg/kg/injection, schedule: Q04DX003 (oral), vehicle: saline): 110 % of control and 116 % of control
- T/C (endpoint: mean survival time, dose: 200.0 mg/kg/injection, schedule: Q04DX003 (sc), vehicle: saline): 108 % of control and 118 % of control
- T/C (endpoint: mean survival time, dose: 200.0 mg/kg/injection, schedule: Q08DX002 (ip), vehicle: saline): 93 % of control
- T/C (endpoint: mean survival time, dose: 264.0 mg/kg/injection, schedule: Q04DX003 (ip), vehicle: saline): 110 % of control and 117 % of control
- T/C (endpoint: mean survival time, dose: 400.0 mg/kg/injection, schedule: Q01DX001 (ip), vehicle: saline): 116 % of control
- T/C (endpoint: mean survival time, dose: 400.0 mg/kg/injection, schedule: Q01DX001 (oral), vehicle: saline): 113 % of control
- T/C (endpoint: mean survival time, dose: 400.0 mg/kg/injection, schedule: Q04DX003 (ip), vehicle: water): 151 % of control
- T/C (endpoint: mean survival time, dose: 400.0 mg/kg/injection, schedule: Q04DX003 (oral), vehicle: saline): 124 % of control
- T/C (endpoint: mean survival time, dose: 400.0 mg/kg/injection, schedule: Q04DX003 (sc), vehicle: saline): 120 % of control
- T/C (endpoint: mean survival time, dose: 400.0 mg/kg/injection, schedule: Q08DX002 (ip), vehicle: saline): 101 % of control
- T/C (endpoint: mean survival time, dose: 600.0 mg/kg/injection, schedule: Q04DX003 (ip), vehicle: saline): 177 % of control
- T/C (endpoint: mean survival time, dose: 800.0 mg/kg/injection, schedule: Q01DX001 (oral), vehicle: saline): 119 % of control
- T/C (endpoint: mean survival time, dose: 800.0 mg/kg/injection, schedule: Q04DX003 (ip), vehicle: saline): 102 % of control and 104 % of control
- T/C (endpoint: mean survival time, dose: 800.0 mg/kg/injection, schedule: Q04DX003 (oral), vehicle: saline): 108 % of control and 118 % of control
- T/C (endpoint: mean survival time, dose: 800.0 mg/kg/injection, schedule: Q04DX003 (sc), vehicle: saline): 100 % of control
- T/C (endpoint: mean survival time, dose: 800.0 mg/kg/injection, schedule: Q08DX002 (ip), vehicle: saline): 158 % of control
- T/C (endpoint: median survival time, dose: 13.0 mg/kg/injection, schedule: Q03HX024 (ip), vehicle: saline): 102 % of control
- T/C (endpoint: median survival time, dose: 20.0 mg/kg/injection, schedule: Q03HX024 (ip), vehicle: saline): 100 % of control
